Publication PMC10216263, “Favorable Preclinical Pharmacological Profile of a Novel Antimalarial Pyrrolizidinylmethyl Derivative of 4-amino-7-chloroquinoline with Potent In Vitro and In Vivo Activities” (Biomolecules, 2023)

Experiments:
P. falciparum 3D7 (CQ-S) = assay: In vitro combination study (isobologram, ∑FIC); type: cell-based
[1] = tested on: P. falciparum V1-S (CQ-R); assay: In vitro antimalarial activity, [3H]-hypoxanthine incorporation (LSHTM); type: cell-based; settings: Plasmodium falciparum; 72 h, [3H]-hypoxanthine incorporation, mean of 3 experiments; read-out: P. falciparum IC50 nM, V1-S (CQ-R)
[2] = Blood to plasma partitioning; type: in vitro ADME; settings: male, whole blood, human blood, up to 30 min
Procedure: (§1) Plasma protein binding was performed via ultrafiltration (30,000 D cutoff, Amicon, Merck) with heparinized blood samples (male SD rats, Charles River Italy, and male Beagle dogs, Marshall Farms, Europe, Lyon, France) and fresh and frozen heparinized human blood samples collected from fasted healthy male subjects (at least two subjects for plasma samples), were supplied by AAI, Germany. MG3 final concentrations of 100, 300 and 1000 ng/mL were prepared using a 10 mg/mL stock solution while control samples at the same concentrations diluted in DPBS buffer (Dulbecco’s Phosphate Buffered Saline, Sigma-Aldrich) to evaluate the recovery. […] The percentage of bound drug (% Fbound) and of unbound drug (% Ffree) was determined using the following equations: % Fbound = [(Conc. Total–Conc. Free)/Conc. […] Total is the compound concentration determined in plasma and Conc. Free is the compound concentration determined in the ultrafiltrated samples. Results were expressed as % of binding and % of free fraction (single values and mean ± SD). […] Blood to plasma ratio was calculated as: Conc. in blood/Conc. in plasma; where, Conc. is the compound concentration determined in blood and in plasma at the same time of incubation.

[3] = Plasma protein binding by ultrafiltration, human, rat and dog; type: in vitro ADME; settings: male, SD (rat), Beagle (dog), read-out: free fraction
Procedure: as §1

[4] = tested on: Salmonella typhimurium TA98; assay: Bacterial Reverse Mutation Assay; settings: TA 98, with metabolic activation
Procedure: using the preincubation method (30 min, 37°C) with and without phenobarbital-5,6-benzoflavone induced
MG3 was dissolved in distilled water (H2O) at
the maximum concentration of 40 mg/mL and tested in a preliminary range-finding test in all strains of
metabolic activation to determine the toxicity of the compound.

P. falciparum K1 (CQ-R) = assay: In vitro antimalarial activity, [3H]-hypoxanthine incorporation (LSHTM); type: cell-based; settings: Plasmodium falciparum, K1; 72 h, [3H]-hypoxanthine incorporation, mean of 3 experiments; read-out: P. falciparum IC50 nM, K1 (CQ-R)
[5] = 7-day oral dose range finding (DRF) and systemic exposure in rats; type: in vivo, Sprague Dawley rats
Procedure: Seven days oral DRF in rats and dog, and five days oral DRF in Non-Human Primates (NHP) were performed using Sprague Dawley rats (n = 3/time point) of both sexes, one male and one female dog Beagle (Marshall/Green Hill) and one male and one female monkeys/Cynomolgus (Noveprim Ltd., Mahebourg Mauritius,). MG3 was administered as oral suspension in 0.5% methocel in water (400 cP viscosity) at the following doses: 30, 60 and 120 mg/kg/day for 7 days (rat), 15 and 30 mg/kg/days for 7 days (dog) and 25, 50 and 75 mg/kg/day (NHP). No Observed Effects Levels (NOEL) were determined. Mortality, behavior, and general conditions were observed daily. Body weight was recorded pre-test, and on Days 1, 4 and 7. Food consumption was recorded from Days 1 to 4 and 4 to 7. Hematological and clinical chemistry examinations were performed on Day 8. All animals were sacrificed under anesthesia at the end of the treatment period on Day 8 of study. Post-mortem examinations included necropsy, collection, and histological examination performed of selected organs/tissues.
Systemic exposure was measured in three additional rats/sex/group at different time-points up to 24 and 48 h after the treatment and on Days 1 and 7, respectively.

CYP1A2 = CYP1A2 (Homo sapiens, UniProt P05177); assay: in vitro
Chain of CYP1A2 (P05177 whole entry): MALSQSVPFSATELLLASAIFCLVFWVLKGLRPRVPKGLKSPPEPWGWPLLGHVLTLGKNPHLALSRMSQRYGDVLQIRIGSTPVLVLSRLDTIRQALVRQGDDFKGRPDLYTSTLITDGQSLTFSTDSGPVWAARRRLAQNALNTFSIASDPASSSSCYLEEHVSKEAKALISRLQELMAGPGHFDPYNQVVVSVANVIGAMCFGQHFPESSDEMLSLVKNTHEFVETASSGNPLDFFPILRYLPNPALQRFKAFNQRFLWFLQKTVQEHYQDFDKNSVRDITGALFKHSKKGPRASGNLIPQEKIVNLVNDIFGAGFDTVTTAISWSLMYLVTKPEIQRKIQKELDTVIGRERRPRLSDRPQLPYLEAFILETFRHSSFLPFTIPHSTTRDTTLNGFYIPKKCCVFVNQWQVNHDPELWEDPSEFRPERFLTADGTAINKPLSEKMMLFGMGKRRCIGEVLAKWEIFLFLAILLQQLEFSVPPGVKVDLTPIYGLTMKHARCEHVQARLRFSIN

hERG K+ channel = hERG K+ channel (Homo sapiens, UniProt Q12809); assay: [3H]-astemizole binding assay in HEK293 cell membranes
Chain of hERG K+ channel (Q12809 whole entry): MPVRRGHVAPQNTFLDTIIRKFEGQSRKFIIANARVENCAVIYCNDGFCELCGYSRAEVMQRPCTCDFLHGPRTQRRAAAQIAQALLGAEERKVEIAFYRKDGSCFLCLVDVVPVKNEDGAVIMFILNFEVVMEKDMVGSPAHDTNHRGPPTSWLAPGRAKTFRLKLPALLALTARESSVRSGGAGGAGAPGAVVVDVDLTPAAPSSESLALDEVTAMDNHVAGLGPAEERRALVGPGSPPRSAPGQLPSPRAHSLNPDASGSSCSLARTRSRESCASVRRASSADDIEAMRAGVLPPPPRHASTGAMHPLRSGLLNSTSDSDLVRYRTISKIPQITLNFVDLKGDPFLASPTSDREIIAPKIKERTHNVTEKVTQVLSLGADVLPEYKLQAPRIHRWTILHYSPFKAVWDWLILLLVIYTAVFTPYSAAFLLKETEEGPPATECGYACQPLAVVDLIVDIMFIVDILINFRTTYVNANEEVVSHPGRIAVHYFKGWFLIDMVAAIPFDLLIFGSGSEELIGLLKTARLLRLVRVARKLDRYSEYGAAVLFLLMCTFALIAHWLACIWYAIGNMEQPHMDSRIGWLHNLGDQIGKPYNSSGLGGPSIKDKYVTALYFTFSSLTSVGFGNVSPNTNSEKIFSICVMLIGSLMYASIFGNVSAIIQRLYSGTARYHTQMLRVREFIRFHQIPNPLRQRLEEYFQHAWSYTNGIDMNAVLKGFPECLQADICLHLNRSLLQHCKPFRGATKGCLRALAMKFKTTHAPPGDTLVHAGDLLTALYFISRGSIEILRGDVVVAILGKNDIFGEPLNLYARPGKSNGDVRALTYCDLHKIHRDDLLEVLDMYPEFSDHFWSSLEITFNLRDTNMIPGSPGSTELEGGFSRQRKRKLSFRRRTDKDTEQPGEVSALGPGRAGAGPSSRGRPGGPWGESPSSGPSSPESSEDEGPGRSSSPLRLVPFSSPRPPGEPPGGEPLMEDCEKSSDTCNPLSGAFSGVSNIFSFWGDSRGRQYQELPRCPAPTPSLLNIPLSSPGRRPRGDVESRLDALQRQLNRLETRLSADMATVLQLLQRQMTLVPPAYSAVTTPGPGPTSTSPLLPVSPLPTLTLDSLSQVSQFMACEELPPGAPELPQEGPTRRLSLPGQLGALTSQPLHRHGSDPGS
Procedure: Methods for hERG interaction
Membranes were prepared from HEK293 cells stably transfected with the human ERG (ether-a-go-go related
gene; U04270) from Cytomix.
was used as radioligand. Non-specific binding was evaluated in the presence of an excess of 10 µM cold
The concentration-response curve was performed in a range from 0.03 to 30 µM (seven

[6] = male, Sprague Dawley, rat, in vivo, po, 30 mg/kg/day

With `Clc1ccc2c(NCC34CCCN3CCC4)ccnc2c1` [MG3, 7-Chloro-N-((hexahydro-1H-pyrrolizin-7a-yl)methyl)quinolin-4-amine] the “Mean ∑FIC50 (95% CI)” value (P. falciparum 3D7 (CQ-S); in combination with ASN, 3D7, IC50 level) was 1.43 (1.30 – 1.55), the “Mean ∑FIC50 (95% CI)” value (P. falciparum 3D7 (CQ-S); in combination with DHA, 3D7, IC50 level) was 1.49 (1.33 – 1.65) and the “Mean ∑FIC50 (95% CI)” value (P. falciparum 3D7 (CQ-S); in combination with RKA-182, 3D7, IC50 level) was 1.45 (1.17 – 1.73). For the same compound, the “interaction (isobologram)” value (P. falciparum 3D7 (CQ-S); in combination with azitromycin, 3D7 (CQ-S)) was “additive”, the IC50 [1] was 25.7 nM and the blood plasma ratio at 300 ng/mL [2] was roughly 1. The fraction unbound [3] was 0.16 to 0.33, the “fold increase value (ratio treated/solvent revertant numbers)” value ([4]; I° Exp., 1000 µg/plate) was 1.1 and the “fold increase value (ratio treated/solvent revertant numbers)” value ([4]; I° Exp., 62.5 g/plate) was 1.1. The “fold increase value (ratio treated/solvent revertant numbers)” value ([4]; I° Exp., 125 g/plate) was 1.2, the “fold increase value (ratio treated/solvent revertant numbers)” value ([4]; I° Exp., 250 g/plate) was 1.4 and the “fold increase value (ratio treated/solvent revertant numbers)” value ([4]; I° Exp., 500 g/plate) was 1.5. The “fold increase value (ratio treated/solvent revertant numbers)” value ([4]; Range finding, 1000 µg/plate) was 1.0, the “fold increase value (ratio treated/solvent revertant numbers)” value ([4]; Range finding, 1.95 g/plate) was 0.9 and the “fold increase value (ratio treated/solvent revertant numbers)” value ([4]; Range finding, 3.9 g/plate) was 0.9. For the same compound, the “fold increase value (ratio treated/solvent revertant numbers)” value ([4]; Range finding, 7.81 g/plate) was 1.5, the “fold increase value (ratio treated/solvent revertant numbers)” value ([4]; Range finding, 15.63 g/plate) was 1.2 and the “fold increase value (ratio treated/solvent revertant numbers)” value ([4]; Range finding, 31.25 g/plate) was 1.0. The “fold increase value (ratio treated/solvent revertant numbers)” value ([4]; Range finding, 62.5 g/plate) was 1.3, the “fold increase value (ratio treated/solvent revertant numbers)” value ([4]; Range finding, 125 g/plate) was 1.3 and the “fold increase value (ratio treated/solvent revertant numbers)” value ([4]; Range finding, 250 g/plate) was 1.2. The “fold increase value (ratio treated/solvent revertant numbers)” value ([4]; Range finding, 500 g/plate) was 1.2, the IC50 (P. falciparum K1 (CQ-R)) was 21.2 nM and the mortality ([5]; 30, 60, and 120 mg/kg/day oral, 7 days) was “no mortality occurred”. It also gave an MTD at 7 days ([5]; both sexes, Sprague Dawley, rat, in vivo, oral, 7 days, rats, read-out: maximum tolerated dose (MTD)) of 120 mg/kg/day, an AUC(0-t) ([5]; female, Sprague Dawley, rat, in vivo, po, 30 mg/kg/day, AUC0–24) of 2560 ± 650 ng·h/mL and an AUC(0-t) ([5]; female, Sprague Dawley, rat, in vivo, po, 30 mg/kg/day, AUC0–48) of 3800 ± 1000 ng·h/mL. The Cmax ([5]; female, Sprague Dawley, rat, in vivo, po, 30 mg/kg/day) was 149 ± 34 ng/mL, the AUC(0-t) ([5]; female, Sprague Dawley, rat, in vivo, po, 60 mg/kg/day, AUC0–24) was 8630 ± 870 ng·h/mL and the AUC(0-t) ([5]; female, Sprague Dawley, rat, in vivo, po, 60 mg/kg/day, AUC0–48) was 15000 ± 900 ng·h/mL. For the same compound, the Cmax ([5]; female, Sprague Dawley, rat, in vivo, po, 60 mg/kg/day) was 646 ± 201 ng/mL, the AUC(0-t) ([5]; female, Sprague Dawley, rat, in vivo, po, 120 mg/kg/day, AUC0–24) was 19400 ± 7500 ng·h/mL and the AUC(0-t) ([5]; female, Sprague Dawley, rat, in vivo, po, 120 mg/kg/day, AUC0–48) was 29800 ± 9600 ng·h/mL. It also gave a Cmax ([5]; female, Sprague Dawley, rat, in vivo, po, 120 mg/kg/day) of 1570 ± 270 ng/mL, an AUC(0-t) ([5]; female, Sprague-Dawley, rat, in vivo, po, 30 mg/kg/day, AUC0–24) of 2530 ± 500 ng·h/mL and an AUC(0-t) ([5]; female, Sprague-Dawley, rat, in vivo, po, 60 mg/kg/day, AUC0–24) of 4740 ± 770 ng·h/mL. For the same compound, the Cmax ([5]; female, Sprague-Dawley, rat, in vivo, po, 60 mg/kg/day) was 259 ± 46 ng/mL, the AUC(0-t) ([5]; female, Sprague-Dawley, rat, in vivo, po, 120 mg/kg/day, AUC0–24) was 5210 ± 1600 ng·h/mL and the Cmax ([5]; female, Sprague-Dawley, rat, in vivo, po, 120 mg/kg/day) was 411 ± 288 ng/mL. The “AUC0–24” value [5, 6] was 1880 ± 190 ng·h/mL, the AUC(0-t) ([5]; male, Sprague Dawley, rat, in vivo, po, 30 mg/kg/day, AUC0–24) was 1880 ± 380 ng·h/mL and the AUC(0-t) ([5]; male, Sprague Dawley, rat, in vivo, po, 30 mg/kg/day, AUC0–48) was 2460 ± 550 ng·h/mL. It also gave a Cmax [5, 6] of 140 ± 30 ng/mL, an AUC(0-t) ([5]; male, Sprague Dawley, rat, in vivo, po, 60 mg/kg/day, AUC0–24) of 5090 ± 450 ng·h/mL and an AUC(0-t) ([5]; male, Sprague Dawley, rat, in vivo, po, 60 mg/kg/day, AUC0–48) of 7330 ± 310 ng·h/mL. For the same compound, the Cmax ([5]; male, Sprague Dawley, rat, in vivo, po, 60 mg/kg/day) was 321 ± 50 ng/mL, the AUC(0-t) ([5]; male, Sprague Dawley, rat, in vivo, po, 120 mg/kg/day, AUC0–24) was 17400 ± 3200 ng·h/mL and the AUC(0-t) ([5]; male, Sprague Dawley, rat, in vivo, po, 120 mg/kg/day, AUC0–48) was 27500 ± 3900 ng·h/mL. The Cmax ([5]; male, Sprague Dawley, rat, in vivo, po, 120 mg/kg/day) was 1090 ± 260 ng/mL, the AUC(0-t) ([5]; male, Sprague-Dawley, rat, in vivo, po, 60 mg/kg/day, AUC0–24) was 3530 ± 180 ng·h/mL and the Cmax ([5]; male, Sprague-Dawley, rat, in vivo, po, 60 mg/kg/day) was 220 ± 10 ng/mL. For the same compound, the AUC(0-t) ([5]; male, Sprague-Dawley, rat, in vivo, po, 120 mg/kg/day, AUC0–24) was 3840 ± 700 ng·h/mL, the Cmax ([5]; male, Sprague-Dawley, rat, in vivo, po, 120 mg/kg/day) was 209 ± 49 ng/mL and the food consumption ([5]; rat, in vivo) was “Minimal to moderate decrease in food consumption”. For the same compound, the “clinical chemistry on Day 8” value ([5]; rat, in vivo, 120 mg/kg/day) was “slight to moderate increase in ALT and AST”, the “systemic exposure in females higher than in males” value ([5]; rat, in vivo, po) was “about two-fold” and the “mortality and liver toxicity” value ([5]; up to 60 mg/kg, 7-day oral toxicity study) was “no mortality and no clinical evidence of liver toxicity”. For the same compound, the inhibition at 3 µM (CYP1A2) was 12.1 ± 1.2% and the Ki (hERG K+ channel) was 553 ± 45 nM.
